# Target: T1, Trx-6×His-BCL6 (human BCL6 BTB domain covering amino-acid sequence 5-129) (Homo sapiens, UniProt P41182)
# T1 construct: made in house
# Experiment: HTRF assay (BCL6 / BCOR peptide)
# Type: binding
# Details: 1 nM Trx-6×His-BCL6, 300 nM BCOR-AF633 peptide, 2 hours incubation at room temperature; read-out: HTRF avg pIC50 (converted)
# Method: After 2 hours incubation at room temperature the plate was read on a Pherastar FSX (BMG Labtech) plate reader equipped with 337 nm laser excitation filter, a first emission filter at 620 nm and a second emission filter at 665 nm. The % inhibition at each concentration was calculated by normalising FRET ratio to the appropriate high (DMSO with all reagents) and low (DMSO without BCL6) controls.
row,Structure (SMILES),IC50 [nM]
1,"Cn1c(=O)c2c(c3cc(Nc4nc(N5CC6CC(C5)O6)ncc4Cl)ccc31)N[C@@H](C1CC1)C(F)(F)CO2 [Example 12d, (2S)-10-((2-(6-oxa-3-azabicyclo[3.1.1]heptan-3-yl)-5-chloropyrimidin-4-yl)amino)-2-cyclopropyl-3,3-difluoro-7-methyl-1,2,3,4-tetrahydro-[1,4]oxazepino[2,3-c]quinolin-6(7H)-one]",4.9
2,"C[C@@H]1CN(C)CCN(c2ncc(Cl)c(Nc3ccc4c(c3)c3c(c(=O)n4C)OCC(F)(F)[C@H](C4CC4)N3)n2)C1 [Example 12g, (S)-10-((5-chloro-2-((R)-4,6-dimethyl-1,4-diazepan-1-yl)pyrimidin-4-yl)amino)-2-cyclopropyl-3,3-difluoro-7-methyl-1,2,3,4-tetrahydro-[1,4]oxazepino[2,3-c]quinolin-6(7H)-one:(S)-10-((5-chloro-2-((S)-4,6-dimethyl-1,4-diazepan-1-yl)pyrimidin-4-yl)amino)-2-cyclopropyl-3,3-difluoro-7-methyl-1,2,3,4-tetrahydro-[1,4]oxazepino[2,3-c]quinolin-6(7H)-one (1:1)]",2.63
3,"C[C@H]1CCN(c2ncc(Cl)c(Nc3ccc4c(c3)c3c(c(=O)n4C)OCC(F)(F)[C@H](C4CC4)N3)n2)C1 [Example 12x01, (S)-10-((5-chloro-2-((S)-3-methylpyrrolidin-1-yl)pyrimidin-4-yl)amino)-2-cyclopropyl-3,3-difluoro-7-methyl-1,2,3,4-tetrahydro-[1,4]oxazepino[2,3-c]quinolin-6(7H)-one]",26.9
4,"C[C@@H]1CCN(c2ncc(Cl)c(Nc3ccc4c(c3)c3c(c(=O)n4C)OCC(F)(F)[C@H](C4CC4)N3)n2)C1 [Example 12x02, (S)-10-((5-chloro-2-((R)-3-methylpyrrolidin-1-yl)pyrimidin-4-yl)amino)-2-cyclopropyl-3,3-difluoro-7-methyl-1,2,3,4-tetrahydro-[1,4]oxazepino[2,3-c]quinolin-6(7H)-one]",21.4
5,"C[C@H]1C[C@@H](F)CN(c2ncc(Cl)c(Nc3ccc4c(c3)c3c(c(=O)n4C)OCC(F)(F)[C@H](C4CC4)N3)n2)C1 [Example 12x03, (S)-10-((5-chloro-2-((3R,5S)-3-fluoro-5-methylpiperidin-1-yl)pyrimidin-4-yl)amino)-2-cyclopropyl-3,3-difluoro-7-methyl-1,2,3,4-tetrahydro-[1,4]oxazepino[2,3-c]quinolin-6(7H)-one]",15.5
6,"CO[C@@H]1C[C@H](C)CN(c2ncc(Cl)c(Nc3ccc4c(c3)c3c(c(=O)n4C)OCC(F)(F)[C@H](C4CC4)N3)n2)C1 [Example 12x05, (S)-10-((5-chloro-2-((3R,5S)-3-methoxy-5-methylpiperidin-1-yl)pyrimidin-4-yl)amino)-2-cyclopropyl-3,3-difluoro-7-methyl-1,2,3,4-tetrahydro-[1,4]oxazepino[2,3-c]quinolin-6(7H)-one]",3.72
7,"CC1CN(c2ncc(Cl)c(Nc3ccc4c(c3)c3c(c(=O)n4C)OCC(F)(F)[C@H](C4CC4)N3)n2)CC(C)S1 (stereo partly drawn) [Example 12x06, (2S)-10-((5-chloro-2-(2,6-dimethylthiomorpholino)pyrimidin-4-yl)amino)-2-cyclopropyl-3,3-difluoro-7-methyl-1,2,3,4-tetrahydro-[1,4]oxazepino[2,3-c]quinolin-6(7H)-one]",30.2
8,"CC1CCCN(c2ncc(Cl)c(Nc3ccc4c(c3)c3c(c(=O)n4C)OCC(F)(F)[C@H](C4CC4)N3)n2)C1C (stereo partly drawn) [Example 12x08, (2S)-10-((5-chloro-2-(2,3-dimethylpiperidin-1-yl)pyrimidin-4-yl)amino)-2-cyclopropyl-3,3-difluoro-7-methyl-1,2,3,4-tetrahydro-[1,4]oxazepino[2,3-c]quinolin-6(7H)-one]",58.9
9,"CC1CN(c2ncc(Cl)c(Nc3ccc4c(c3)c3c(c(=O)n4C)OCC(F)(F)[C@H](C4CC4)N3)n2)CC(C)[S+]1[O-] (stereo partly drawn) [Example 12x09, (2S)-10-((5-chloro-2-(2,6-dimethyl-1-oxidothiomorpholino)pyrimidin-4-yl)amino)-2-cyclopropyl-3,3-difluoro-7-methyl-1,2,3,4-tetrahydro-[1,4]oxazepino[2,3-c]quinolin-6(7H)-one]",1.7
10,"CC1CCC(CO)N(c2ncc(Cl)c(Nc3ccc4c(c3)c3c(c(=O)n4C)OCC(F)(F)[C@H](C4CC4)N3)n2)C1 (stereo partly drawn) [Example 12x10, (2S)-10-((5-chloro-2-(2-(hydroxymethyl)-5-methylpiperidin-1-yl)pyrimidin-4-yl)amino)-2-cyclopropyl-3,3-difluoro-7-methyl-1,2,3,4-tetrahydro-[1,4]oxazepino[2,3-c]quinolin-6(7H)-one]",11.7
11,"CC1CN(c2ncc(Cl)c(Nc3ccc4c(c3)c3c(c(=O)n4C)OCC(F)(F)[C@H](C4CC4)N3)n2)CC(C)S1(=O)=O (stereo partly drawn) [Example 12x11, (2S)-10-((5-chloro-2-(2,6-dimethyl-1,1-dioxidothiomorpholino)pyrimidin-4-yl)amino)-2-cyclopropyl-3,3-difluoro-7-methyl-1,2,3,4-tetrahydro-[1,4]oxazepino[2,3-c]quinolin-6(7H)-one]",1.62
12,"CC1CCC(C)N(c2ncc(Cl)c(Nc3ccc4c(c3)c3c(c(=O)n4C)OCC(F)(F)[C@H](C4CC4)N3)n2)C1 (stereo partly drawn) [Example 12x12, (2S)-10-((5-chloro-2-(2,5-dimethylpiperidin-1-yl)pyrimidin-4-yl)amino)-2-cyclopropyl-3,3-difluoro-7-methyl-1,2,3,4-tetrahydro-[1,4]oxazepino[2,3-c]quinolin-6(7H)-one]",56.2

# Next, values leading:
row,IC50 [nM],Structure (SMILES)
1,5.62,"C[C@H]1C[C@H](O)CN(c2ncc(Cl)c(Nc3ccc4c(c3)c3c(c(=O)n4C)OCC(F)(F)[C@H](C4CC4)N3)n2)C1 [Example 12x13, (S)-10-((5-chloro-2-((3S,5S)-3-hydroxy-5-methylpiperidin-1-yl)pyrimidin-4-yl)amino)-2-cyclopropyl-3,3-difluoro-7-methyl-1,2,3,4-tetrahydro-[1,4]oxazepino[2,3-c]quinolin-6(7H)-one]"
2,3.47,"Cn1c(=O)c2c(c3cc(Nc4nc(N5CCNCC(O)C5)ncc4Cl)ccc31)N[C@@H](C1CC1)C(F)(F)CO2 (stereo partly drawn) [Example 12x14, (2S)-10-((5-chloro-2-(6-hydroxy-1,4-diazepan-1-yl)pyrimidin-4-yl)amino)-2-cyclopropyl-3,3-difluoro-7-methyl-1,2,3,4-tetrahydro-[1,4]oxazepino[2,3-c]quinolin-6(7H)-one]"
3,1.78,"[2H]C([2H])([2H])N1CCN(c2ncc(Cl)c(Nc3ccc4c(c3)c3c(c(=O)n4C)OCC(F)(F)[C@H](C4CC4)N3)n2)CC(O)C1 (stereo partly drawn) [Example 12x15-d3, (2S)-10-((5-chloro-2-(6-hydroxy-4-(methyl-d3)-1,4-diazepan-1-yl)pyrimidin-4-yl)amino)-2-cyclopropyl-3,3-difluoro-7-methyl-1,2,3,4-tetrahydro-[1,4]oxazepino[2,3-c]quinolin-6(7H)-one]"
4,22.9,"C#CC1CCCN(c2ncc(Cl)c(Nc3ccc4c(c3)c3c(c(=O)n4C)OCC(F)(F)[C@H](C4CC4)N3)n2)C1 (stereo partly drawn) [Example 12x22, (2S)-10-((5-chloro-2-(3-ethynylpiperidin-1-yl)pyrimidin-4-yl)amino)-2-cyclopropyl-3,3-difluoro-7-methyl-1,2,3,4-tetrahydro-[1,4]oxazepino[2,3-c]quinolin-6(7H)-one]"
5,5.13,"Cn1c(=O)c2c(c3cc(Nc4nc(N5CCCC(C#N)C5)ncc4Cl)ccc31)N[C@@H](C1CC1)C(F)(F)CO2 (stereo partly drawn) [Example 12x23, 1-(5-chloro-4-(((S)-2-cyclopropyl-3,3-difluoro-7-methyl-6-oxo-1,2,3,4,6,7-hexahydro-[1,4]oxazepino[2,3-c]quinolin-10-yl)amino)pyrimidin-2-yl)piperidine-3-carbonitrile]"
6,14.5,"Cn1c(=O)c2c(c3cc(Nc4nc(NC5CCC(F)(F)CC5)ncc4Cl)ccc31)N[C@@H](C1CC1)C(F)(F)CO2 [Example 12x24, (S)-10-((5-chloro-2-((4,4-difluorocyclohexyl)amino)pyrimidin-4-yl)amino)-2-cyclopropyl-3,3-difluoro-7-methyl-1,2,3,4-tetrahydro-[1,4]oxazepino[2,3-c]quinolin-6(7H)-one]"
7,15.8,"Cn1c(=O)c2c(c3cc(Nc4nc(N5CCCC6CC65)ncc4Cl)ccc31)N[C@@H](C1CC1)C(F)(F)CO2 (stereo partly drawn) [Example 12x25, (2S)-10-((2-(2-azabicyclo[4.1.0]heptan-2-yl)-5-chloropyrimidin-4-yl)amino)-2-cyclopropyl-3,3-difluoro-7-methyl-1,2,3,4-tetrahydro-[1,4]oxazepino[2,3-c]quinolin-6(7H)-one]"
8,1.91,"Cn1c(=O)c2c(c3cc(Nc4nc(N5CCNC(C(F)F)C5)ncc4Cl)ccc31)N[C@@H](C1CC1)C(F)(F)CO2 (stereo partly drawn) [Example 12x26, (2S)-10-((5-chloro-2-(3-(difluoromethyl)piperazin-1-yl)pyrimidin-4-yl)amino)-2-cyclopropyl-3,3-difluoro-7-methyl-1,2,3,4-tetrahydro-[1,4]oxazepino[2,3-c]quinolin-6(7H)-one]"
9,3.16,"C[C@H]1C[C@@H](OCCN(C)C)CN(c2ncc(Cl)c(Nc3ccc4c(c3)c3c(c(=O)n4C)OCC(F)(F)[C@H](C4CC4)N3)n2)C1 [Example 12x28, (S)-10-((5-chloro-2-((3R,5S)-3-(2-(dimethylamino)ethoxy)-5-methylpiperidin-1-yl)pyrimidin-4-yl)amino)-2-cyclopropyl-3,3-difluoro-7-methyl-1,2,3,4-tetrahydro-[1,4]oxazepino[2,3-c]quinolin-6(7H)-one]"
10,2,"CC1CC(C(=O)N2CCC2)CN(c2ncc(Cl)c(Nc3ccc4c(c3)c3c(c(=O)n4C)OCC(F)(F)[C@H](C4CC4)N3)n2)C1 (stereo partly drawn) [Example 12x30, (2S)-10-((2-(3-(azetidine-1-carbonyl)-5-methylpiperidin-1-yl)-5-chloropyrimidin-4-yl)amino)-2-cyclopropyl-3,3-difluoro-7-methyl-1,2,3,4-tetrahydro-[1,4]oxazepino[2,3-c]quinolin-6(7H)-one]"

# — patent US12528826B2, “[1,4]oxazepino[2,3-c]quinolinone derivatives as BCL6 inhibitors” (Cancer Research Technology Limited, priority 2019, dated 2026)
